Assay results reported in patent publication US10995099B2, “Compounds and their uses as ACC inhibitors” (NANJING RUIJIE PHARMATECH CO., LTD., priority 2017, dated 2021).
Like-named read-outs stand apart in the source and are kept apart here.

Assays:
HepG2 = test: EC50 in HepG2; format: cell-based
ACC2 = ACC2 (Homo sapiens (Human), UniProt O00763); test: In vitro ACC inhibition assay (ADP-Glo), ACC2; format: biochemical
Protocol: (§1) Compounds of the present invention were evaluated in an in vitro ACC inhibition assay as described by Harwood, et al, 2003, the entirety of which is incorporated herein by reference.
(§2) In Vitro Acetyl-CoA Carboxylase (ACC) Inhibition Assay
(§3) An exemplary procedure for the in vitro ACC inhibition assay, which can be used to determine the inhibitory action of compounds of the invention toward either ACC1 or ACC2, follows. The ADP-Glo™ Kinase Assay kit from Promega was used. The ADP-Glo™ Kinase Assay is a luminescent ADP detection assay to measure enzymatic activity by quantifying the amount of ADP produced during an enzyme reaction. The assay is performed in two steps; first, after the enzyme reaction, an equal volume of ADP-Glo™ Reagent is added to terminate the reaction and deplete the remaining ATP. Second, the Kinase Detection Reagent is added to simultaneously convert ADP to ATP and allow the newly synthesized ATP to be measured using a luciferase/luciferin reaction. Luminescence can be correlated to ADP concentrations by using an ATP-to-ADP conversion curve. The detailed procedure is as follows. 50 μL of the compound being tested (600 uM in DMSO) was added to a 384-well dilution plate. The compound was diluted 1:3 in succession in DMSO for each row for 11 wells. 0.5 μL ACC2 working solution was added to 384-well white Optiplate assay plate. 0.5 μL diluted compound solution in each column from step 2 to assay plate, each row containing 2 replicates. […] The plates were incubated at room temperature for 15 minutes. 5 μL substrate working solution was added to each well to initiate reaction. Final ACC2 reaction concentrations consist of: 5 nM ACC2, 20 μM ATP, 20 μM acetyl-CoA, 12 mM NaHCO3, 0.01% Brij35, 2 mM DTT, 5% DMSO, test compound concentrations: 30 μM, 10 μM, 3.33 μM, 1.11 μM, 0.37 μM, 0.123 μM, 0.0411 μM, 0.0137 μM, 0.00457 μM, 0.00152 μM, and 0.00051 μM. Plates were incubated at room temperature for 60 minutes. 10 μL ADP glo reagent was added. Plates were incubated at room temperature for 40 minutes. 20 μL kinase detection reagent was added. Plates were incubated at room temperature for 40 minutes, then read on a Perkin Elmer EnVision 2104 plate reader for luminescence as Relative Light Units (RLU).
(§4) Data for each concentration, as well as the positive and negative controls were averaged, and the standard deviation calculated. Percent inhibition was calculated by the formula: 100×(average negative control-compound)/(average negative control-average positive control). The IC50 for each compound was calculated by fitting the data with a non-linear regress ion equation: Y=Bottom+(Top−Bottom)/(1+10((Log IC50−X* HillSlope)), where X is the log of compound concentration and Y is percent inhibition.

MDA-MB-468 = test: EC50 in MDA-MB-468; format: cell-based
ACC1 = ACC1 (Homo sapiens (Human), UniProt Q13085); test: In vitro ACC inhibition assay (ADP-Glo), ACC1; format: biochemical
Protocol: as §1, §2, §3, §4

A549 = test: EC50 in A549; format: cell-based
[1] = HepG2, read-out: EC50 (μM) HepG2
[2] = ND630 versus RJ compounds, read-out: EC50 (μM) ND630/RJ-cmps(%)
[3] = 5 nM ACC2, 20 μM ATP, 20 μM acetyl-CoA, read-out: IC50 (μM) ACC2
[4] = ND630 versus RJ compounds, isoform not given, read-out: IC50 (μM) ND630/RJ-cmps(%)
[5] = MDA-MB-468, read-out: EC50 (μM) MDA-MB-468

Sequence of ACC2 (O00763 whole entry, species assumed): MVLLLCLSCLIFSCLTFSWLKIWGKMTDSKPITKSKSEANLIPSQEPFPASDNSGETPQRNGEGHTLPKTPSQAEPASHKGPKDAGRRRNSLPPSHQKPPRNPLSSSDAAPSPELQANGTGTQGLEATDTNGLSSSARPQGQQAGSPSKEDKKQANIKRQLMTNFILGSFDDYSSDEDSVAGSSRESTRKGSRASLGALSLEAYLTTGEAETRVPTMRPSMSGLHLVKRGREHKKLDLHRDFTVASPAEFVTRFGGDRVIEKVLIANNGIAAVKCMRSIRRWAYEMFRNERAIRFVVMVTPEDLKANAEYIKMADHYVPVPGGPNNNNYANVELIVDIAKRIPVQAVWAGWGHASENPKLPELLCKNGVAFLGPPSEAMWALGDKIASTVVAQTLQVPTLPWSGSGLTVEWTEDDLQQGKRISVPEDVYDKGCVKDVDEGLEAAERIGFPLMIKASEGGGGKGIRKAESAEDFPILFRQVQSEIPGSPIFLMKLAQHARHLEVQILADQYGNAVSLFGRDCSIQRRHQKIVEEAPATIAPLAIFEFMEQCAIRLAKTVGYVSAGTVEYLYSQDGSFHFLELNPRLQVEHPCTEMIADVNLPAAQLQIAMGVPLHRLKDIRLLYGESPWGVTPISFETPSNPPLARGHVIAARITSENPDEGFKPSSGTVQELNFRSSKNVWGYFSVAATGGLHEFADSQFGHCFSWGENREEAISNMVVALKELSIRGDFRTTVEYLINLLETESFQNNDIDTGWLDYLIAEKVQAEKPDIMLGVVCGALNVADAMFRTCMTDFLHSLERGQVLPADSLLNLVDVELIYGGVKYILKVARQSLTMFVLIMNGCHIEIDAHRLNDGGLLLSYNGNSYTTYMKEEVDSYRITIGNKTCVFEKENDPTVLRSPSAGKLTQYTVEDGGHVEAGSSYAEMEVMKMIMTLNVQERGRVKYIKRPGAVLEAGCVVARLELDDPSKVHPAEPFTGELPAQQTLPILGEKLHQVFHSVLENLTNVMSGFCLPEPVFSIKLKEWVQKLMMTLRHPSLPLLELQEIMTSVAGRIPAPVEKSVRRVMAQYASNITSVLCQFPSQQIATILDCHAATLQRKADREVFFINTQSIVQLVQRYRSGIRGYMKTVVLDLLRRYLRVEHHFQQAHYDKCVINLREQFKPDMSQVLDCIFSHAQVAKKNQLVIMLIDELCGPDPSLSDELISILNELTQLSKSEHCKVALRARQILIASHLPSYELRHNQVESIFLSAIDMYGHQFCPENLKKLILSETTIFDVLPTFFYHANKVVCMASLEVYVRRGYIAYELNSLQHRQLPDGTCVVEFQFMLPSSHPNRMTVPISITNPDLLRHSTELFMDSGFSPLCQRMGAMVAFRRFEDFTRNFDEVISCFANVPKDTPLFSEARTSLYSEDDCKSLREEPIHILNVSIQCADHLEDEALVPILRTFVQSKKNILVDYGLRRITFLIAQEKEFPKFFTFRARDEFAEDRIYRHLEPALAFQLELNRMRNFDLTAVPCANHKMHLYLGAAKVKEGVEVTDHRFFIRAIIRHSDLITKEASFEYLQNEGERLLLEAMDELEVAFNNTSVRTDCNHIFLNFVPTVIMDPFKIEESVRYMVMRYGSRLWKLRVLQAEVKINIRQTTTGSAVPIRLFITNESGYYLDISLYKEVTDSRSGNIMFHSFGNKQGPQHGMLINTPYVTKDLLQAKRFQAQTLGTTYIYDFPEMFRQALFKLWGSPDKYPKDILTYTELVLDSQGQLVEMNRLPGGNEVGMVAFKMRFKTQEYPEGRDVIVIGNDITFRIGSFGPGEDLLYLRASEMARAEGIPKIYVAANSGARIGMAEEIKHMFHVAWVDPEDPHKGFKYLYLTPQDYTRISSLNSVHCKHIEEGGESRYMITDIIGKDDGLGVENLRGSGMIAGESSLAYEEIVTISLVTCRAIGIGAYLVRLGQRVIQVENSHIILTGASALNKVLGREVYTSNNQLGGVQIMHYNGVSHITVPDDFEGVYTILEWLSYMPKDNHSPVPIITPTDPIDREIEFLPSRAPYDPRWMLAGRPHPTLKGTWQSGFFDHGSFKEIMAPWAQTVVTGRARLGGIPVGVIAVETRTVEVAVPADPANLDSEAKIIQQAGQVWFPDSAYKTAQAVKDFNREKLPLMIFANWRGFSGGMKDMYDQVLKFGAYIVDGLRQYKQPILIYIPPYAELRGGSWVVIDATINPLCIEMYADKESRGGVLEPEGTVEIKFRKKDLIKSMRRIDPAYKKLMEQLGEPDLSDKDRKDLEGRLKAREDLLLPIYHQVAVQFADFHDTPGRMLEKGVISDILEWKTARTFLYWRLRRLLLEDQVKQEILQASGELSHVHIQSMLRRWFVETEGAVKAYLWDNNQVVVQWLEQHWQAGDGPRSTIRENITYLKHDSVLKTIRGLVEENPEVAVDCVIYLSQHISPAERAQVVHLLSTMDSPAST

| Compound | EC50 (HepG2; [1]) [µM] | EC50 (HepG2; [2]) [µM] | IC50 (ACC2; [3]) [µM] | IC50 (ACC2; [4]) [µM] | EC50 (MDA-MB-468; [5]) [µM] | IC50 (ACC1) [µM] | EC50 (A549; A549, read-out: EC50 (μM) A549) [µM] | EC50 (MDA-MB-468; MDA-MB-468, reference, read-out: EC50 MDA-MB-468 (cisplatin)) [µM] | EC50 (A549; A549, reference, read-out: EC50 A549 (cisplatin)) [µM] |
| --- | --- | --- | --- | --- | --- | --- | --- | --- | --- |
| COc1ccccc1[C@H](Cn1c(=O)n(C2(C(=O)O)CC2)c(=O)c2c(C)c(Br)sc21)OC1CCOCC1 [Example 29] | 0.01 to 0.1 | 0.1 to 1 | < 0.01 | 0.003 to 0.005 | > 10 | 0.001 to 0.01 | 0.5 to 1 | – | – |
| CNC(=O)C1(n2c(=O)c3c(C)c(-c4ncco4)sc3n(CC(OC3CCOCC3)c3ccccc3OC)c2=O)CC1 (stereo not drawn) [Example 47] | 0.01 to 0.1 | > 1 | 0.01 to 0.1 | 0.005 to 0.01 | – | 0.001 to 0.01 | – | – | – |
| CNC(=O)C1(n2c(=O)c3c(C)c(-c4ncco4)sc3n(CC(OC3CCOCC3)c3ccccc3OC)c2=O)CCC1 (stereo not drawn) [Example 53] | 0.01 to 0.1 | > 1 | < 0.01 | 0.003 to 0.005 | – | 0.001 to 0.01 | – | – | – |
| N.N.[Cl][Pt][Cl] [cisplatin, reference compound] | – | – | – | – | – | – | – | 0.68 | 1.28 |
| CNC(=O)C1(n2c(=O)c3c(C)c(Br)sc3n(CC(OC3CCOCC3)c3ccccc3OC)c2=O)CCC1 (stereo not drawn) [Example 52] | 0.01 to 0.1 | > 1 | 0.01 to 0.1 | 0.003 to 0.005 | – | 0.01 to 0.05 | – | – | – |
| COc1ccccc1[C@H](Cn1c(=O)n(C2(CC(=O)O)CC2)c(=O)c2c(C)c(-c3ncco3)sc21)OC1CCOCC1 [Example 61] | 0.1 to 1 | > 1 | < 0.01 | – | – | 0.01 to 0.05 | – | – | – |
| COc1ccccc1[C@H](Cn1c(=O)n(C2(C(=O)O)CCCC2)c(=O)c2c(C)c(Br)sc21)OC1CCOCC1 [Example 30] | 0.1 to 1 | > 1 | < 0.01 | 0.003 to 0.005 | > 10 | – | > 1 | – | – |
| COc1ccccc1[C@H](Cn1c(=O)n(C2(C(=O)O)CC2)c(=O)c2c(C)c(-c3ncco3)sc21)OC1CCOCC1 [Example 33] | 0.01 to 0.1 | > 1 | < 0.01 | 0.003 to 0.005 | 1 to 10 | < 0.001 | < 0.5 | – | – |
| COc1ccccc1C(Cn1c(=O)n(C2(C(N)=O)CC2)c(=O)c2c(C)c(-c3ncco3)sc21)OC1CCOCC1 (stereo not drawn) [Example 46] | 0.01 to 0.1 | > 1 | 0.01 to 0.1 | 0.005 to 0.01 | – | 0.001 to 0.01 | – | – | – |
| COc1ccccc1[C@H](Cn1c(=O)n(C(C)(C)C(N)=O)c(=O)c2c(C)c(-c3ncco3)sc21)OC1CCOCC1 [Example 42] | < 0.01 | > 1 | – | – | > 10 | – | < 0.5 | – | – |
| COc1ccccc1[C@H](Cn1c(=O)n(C2(C(=O)O)CCCC2)c(=O)c2c(C)c(-n3nccn3)sc21)OC1CCOCC1 [Example 55] | < 0.01 | > 1 | < 0.01 | 0.005 to 0.01 | – | < 0.001 | – | – | – |
| COc1ccccc1[C@H](Cn1c(=O)n(C2(C(N)=O)CC2)c(=O)c2c(C)c(Br)sc21)OC1CCOCC1 [Example 58] | > 1 | – | 0.01 to 0.1 | > 0.01 | – | 0.01 to 0.05 | – | – | – |
| COC(=O)C1(n2c(=O)c3c(C)c(Br)sc3n(C[C@H](OC3CCOCC3)c3ccccc3OC)c2=O)CCC1 [Example 67] | – | – | 0.1 to 1 | > 0.01 | – | > 0.05 | – | – | – |
| COc1ccccc1[C@H](Cn1c(=O)n(C2(C(=O)NS(C)(=O)=O)CC2)c(=O)c2c(C)c(-c3ncco3)sc21)OC1CCOCC1 [Example 41] | > 1 | > 1 | < 0.01 | 0.005 to 0.01 | 1 to 10 | – | < 0.5 | – | – |
| COc1ccccc1C(Cn1c(=O)n(C2(C(N)=O)CCC2)c(=O)c2c(C)c(-c3ncco3)sc21)OC1CCOCC1 (stereo not drawn) [Example 54] | < 0.01 | > 1 | 0.01 to 0.1 | 0.005 to 0.01 | – | 0.001 to 0.01 | – | – | – |
| COc1ccccc1[C@H](Cn1c(=O)n(C2(CC(N)=O)CC2)c(=O)c2c(C)c(Br)sc21)OC1CCOCC1 [Example 60] | – | – | 0.01 to 0.1 | > 0.01 | – | 0.01 to 0.05 | – | – | – |
| COc1ccccc1C(Cn1c(=O)n(C2(C(N)=O)CCC2)c(=O)c2c(C)c(Br)sc21)OC1CCOCC1 (stereo not drawn) [Example 51] | 0.01 to 0.1 | > 1 | 0.01 to 0.1 | 0.003 to 0.005 | – | 0.01 to 0.05 | – | – | – |
| COc1ccccc1C(Cn1c(=O)n(C2(C(N)=O)CCCC2)c(=O)c2c(C)c(-c3ncco3)sc21)OC1CCOCC1 (stereo not drawn) [Example 43] | < 0.01 | > 1 | < 0.01 | 0.005 to 0.01 | – | 0.001 to 0.01 | – | – | – |
| CNC(=O)C1(n2c(=O)c3c(C)c(-c4ncco4)sc3n(CC(OC3CCOCC3)c3ccccc3OC)c2=O)CCCC1 (stereo not drawn) [Example 44] | < 0.01 | > 1 | 0.01 to 0.1 | 0.005 to 0.01 | – | 0.001 to 0.01 | – | – | – |
| COc1ccccc1[C@H](Cn1c(=O)n(C2(C(=O)O)CC2)c(=O)c2c(C)c(Cl)sc21)OC1CCOCC1 [Example 40] | 0.1 to 1 | > 1 | 0.01 to 0.1 | 0.005 to 0.01 | > 10 | – | > 1 | – | – |
| CNC(=O)CC1(n2c(=O)c3c(C)c(Br)sc3n(C[C@H](OC3CCOCC3)c3ccccc3OC)c2=O)CC1 [Example 62] | 0.01 to 0.1 | > 1 | 0.01 to 0.1 | – | – | 0.001 to 0.01 | – | – | – |
| CNC(=O)CC1(n2c(=O)c3c(C)c(-c4ncco4)sc3n(C[C@H](OC3CCOCC3)c3ccccc3OC)c2=O)CC1 [Example 63] | 0.01 to 0.1 | > 1 | 0.01 to 0.1 | – | – | 0.001 to 0.01 | – | – | – |
| COc1ccccc1[C@H](Cn1c(=O)n(C2(CC(N)=O)CC2)c(=O)c2c(C)c(-c3ncco3)sc21)OC1CCOCC1 [Example 64] | < 0.01 | > 1 | < 0.01 | – | – | 0.001 to 0.01 | – | – | – |
| COc1ccccc1[C@H](Cn1c(=O)n(C2CCC2C(=O)O)c(=O)c2c(C)c(-c3ncco3)sc21)OC1CCOCC1 (stereo partly drawn) [Example 69] | < 0.01 | > 1 | < 0.01 | > 0.01 | – | < 0.001 | – | – | – |
